Measurements from ChEMBL document CHEMBL3046096, “CoMFA AND CoMSIA STUDIES ON A SET OF BENZYL PIPERAZINES, PIPERADINES, PYRAZINOPYRIDOINDOLES, PYRAZINOISOQUINOLINES AND SEMI RIGID ANALOGS OF DIPHENHYDRAMINE” (Med Chem Res, 2004).

Biological target: Histamine H1 receptor (Cavia porcellus) (UniProt P31389)
Assay: Antagonist activity at histamine H1 receptor in Cavia porcellus (guinea pig) ileum
Assay type: tissue-based

Sequence of Histamine H1 receptor (Cavia porcellus) (P31389 whole entry): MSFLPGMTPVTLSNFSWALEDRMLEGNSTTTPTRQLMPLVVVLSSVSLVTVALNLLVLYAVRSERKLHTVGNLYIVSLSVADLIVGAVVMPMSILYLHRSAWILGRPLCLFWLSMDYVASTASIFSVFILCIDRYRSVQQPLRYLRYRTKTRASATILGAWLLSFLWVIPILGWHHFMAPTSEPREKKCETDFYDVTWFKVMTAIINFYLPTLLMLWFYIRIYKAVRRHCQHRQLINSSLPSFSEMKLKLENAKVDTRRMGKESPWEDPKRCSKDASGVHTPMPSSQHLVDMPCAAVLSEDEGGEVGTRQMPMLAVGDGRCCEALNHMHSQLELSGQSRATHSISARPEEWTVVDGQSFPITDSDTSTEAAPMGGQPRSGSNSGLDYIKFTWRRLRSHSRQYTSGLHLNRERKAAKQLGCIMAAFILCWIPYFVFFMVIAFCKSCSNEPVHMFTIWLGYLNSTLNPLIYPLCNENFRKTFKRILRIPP

Row | Compound | Activity [µM/L]
1 | O=C(NCCN1CCN(Cc2ccccc2)CC1)c1ccccc1 | 6.94
2 | O=C(CCN1CCN2Cc3[nH]c4ccccc4c3CC2C1)Nc1ccccc1 (centres undefined) | 1.6
3 | CN(C)C[C@@H]1O[C@@H](c2ccccc2)c2ccccc21 (relative stereo) | 0.0039
4 | CCc1ccccc1NC(=O)CCN1CCN2Cc3[nH]c4ccccc4c3CC2C1 (centres undefined) | 0.634
5 | CN(C)[C@@H]1CO[C@@H](c2ccccc2)c2ccccc21 (relative stereo) | 0.51
6 | O=C(CCN1CCN(Cc2ccccc2)CC1)Nc1ccccc1[N+](=O)[O-] | 1.7
7 | O=C(CCN1CCN2Cc3ccccc3CC2C1)Nc1ccccc1[N+](=O)[O-] (centres undefined) | 1.32
8 | O=C(NCCN1CCN(Cc2ccccc2)CC1)c1ccccc1Br | 0.421
9 | O=C(CCN1CCN2Cc3[nH]c4ccccc4c3CC2C1)Nc1ccccc1F (centres undefined) | 1.28
10 | O=C(NCCN1CCN2Cc3[nH]c4ccccc4c3CC2C1)c1ccccc1[N+](=O)[O-] (centres undefined) | 0.375
11 | O=C(CCN1CCN2Cc3ccccc3CC2C1)Nc1ccccc1 (centres undefined) | 1.34
12 | CCc1ccccc1NC(=O)CCN1CCN2Cc3ccccc3CC2C1 (centres undefined) | 0.525
13 | CN(C)CCOC1c2ccccc2-c2ccccc21 | 0.039
14 | O=C(CCN1CCN(Cc2ccccc2)CC1)Nc1ccccc1 | 2.17
15 | O=C(NCCN1CCN(Cc2ccccc2)CC1)c1ccccc1Cl | 0.696
16 | O=C(CCN1CCN2Cc3[nH]c4ccccc4c3CC2C1)Nc1ccccc1Cl (centres undefined) | 0.979
17 | O=C(CCN1CCN2Cc3[nH]c4ccccc4c3CC2C1)Nc1ccccc1[N+](=O)[O-] (centres undefined) | 1.74
18 | CN(C)C[C@@H]1O[C@H](c2ccccc2)c2ccccc21 (relative stereo) | 0.0039
19 | O=C(CCN1CCN2Cc3ccccc3CC2C1)Nc1ccccc1Cl (centres undefined) | 0.677

Second part, the compound after the results:

Row | Activity [µM/L] | Compound
20 | 0.836 | O=C(CCN1CCN(Cc2ccccc2)CC1)Nc1ccccc1Cl
21 | 0.477 | CCc1ccccc1NC(=O)CCN1CCC(Cc2ccccc2)CC1
22 | 0.832 | O=C(CCN1CCC(Cc2ccccc2)CC1)Nc1ccccc1F
23 | 0.206 | O=C(NCCN1CCN2Cc3[nH]c4ccccc4c3CC2C1)c1ccccc1Cl (centres undefined)
24 | 0.925 | Nc1ccccc1C(=O)NCCN1CCN2Cc3[nH]c4ccccc4c3CC2C1 (centres undefined)
25 | 1.32 | O=C(NCCN1CCN(Cc2ccccc2)CC1)c1ccccc1[N+](=O)[O-]
26 | 0.364 | COc1ccccc1C(=O)NCCN1CCN2Cc3[nH]c4ccccc4c3CC2C1 (centres undefined)
27 | 1.32 | O=C(CCN1CCN(Cc2ccccc2)CC1)Nc1ccccc1F
28 | 0.535 | O=C(NCCN1CCN2Cc3[nH]c4ccccc4c3CC2C1)c1ccccc1 (centres undefined)
29 | 7.12 | Cc1ccccc1C(=O)NCCN1CCN(Cc2ccccc2)CC1
30 | 0.345 | O=C(NCCN1CCN(Cc2ccccc2)CC1)c1ccccc1I
31 | 1.07 | Cc1ccccc1C(=O)NCCN1CCC(Cc2ccccc2)CC1
32 | 1.51 | O=C(CCN1CCC(Cc2ccccc2)CC1)Nc1ccccc1
33 | 0.778 | CCc1ccccc1NC(=O)CCN1CCN(Cc2ccccc2)CC1
34 | 1.55 | O=C(NCCN1CCC(Cc2ccccc2)CC1)c1ccccc1
35 | 0.561 | O=C(CCN1CCC(Cc2ccccc2)CC1)Nc1ccccc1Cl
36 | 0.963 | COc1ccccc1NC(=O)CCN1CCC(Cc2ccccc2)CC1
37 | 0.283 | Cc1ccccc1C(=O)NCCN1CCN2Cc3[nH]c4ccccc4c3CC2C1 (centres undefined)
38 | 0.661 | O=C(NCCN1CCC(Cc2ccccc2)CC1)c1ccccc1Br
39 | 0.799 | O=C(NCCN1CCC(Cc2ccccc2)CC1)c1ccccc1Cl
